# Assay results from US20110152379A1, “COMPOSITION FOR CONTROL OF AGING AND/OR EXTENSION OF LIFE, CONTAINING DAPSONE AS ACTIVE INGREDIENT” (priority 2008, published 2011).
# Key:
# C. elegans [1] = assay: Chemiluminescent of lipofuscin in small intestine of worm; format: in vivo; conditions: fed on DDS during the whole life and after the adolescence; FIG. 5
# Description: The chemiluminescent of C. elegans was taken a photograph by exposing for 800 msec through 525 nm Band-Pass Filter. The size of each photograph was only adjusted by using Adobe Photoshop CS2. For measuring the amount of Chemiluminescent in a small intestine, the brightness of pixels in a certain region was measured by Image J 1.35. At least 30 of C. elegans were measured every day and then the mean and standard error were calculated.
# C. elegans [2] = assay: Oxidative stress resistance test, survival in 250 mM paraquat; format: in vivo; conditions: PQ 250 mM; compared with control C. elegans; FIG. 12
# Description: C. elegans at 5 days after administrating dapsone for second generations was used for testing an oxidative stress resistance by dapsone. 250 mM of paraquat was dissolved in M9 solution and then 20 C. elegans was immersed into the above solution. The number of living C. elegans was measured per an hour.
# ceDuox1 = assay: RT-PCR of ceDuox1 mRNA in worms; format: in vivo, C. elegans; conditions: worms treated with DDS; FIG. 13
# Description: (§1) Total RNA was isolated by using TRI reagent available from MRC Company and first cDNA strain was synthesized by using Oligo-dT and Superscript II Reverse Transcriptase (available from Invitrogen Company). The gene amplification (PCR) was performed by using PCR Master Mix (Genenmed) and as the base sequence of the primer, ceDuox1; 5′-[…]-3′ (Forward Primer) and 5′-[…]-3′ (Reverse Primer), actin 5′-[…]-3′ (Forward Primer) and 5′-[…]-3′ (Reverse Primer) were used.
# pyruvate = assay: Pyruvate content in C. elegans (fluorescence-based assay kit); format: in vivo; conditions: C. elegans that fed on DDS; FIG. 17A
# Description: The measurement of pyruvate content was performed by using Fluorescence-based assay kit (BioVision) was purchased according to its instructions. […] Three measurements were performed.
# autophagy = assay: Autophagy genes RT-PCR and GFP::lgg-1 immune blot in C. elegans; format: in vivo; conditions: after treating with DDS
# Description: All the results are summarized from three independent experiments.
# as §1
# In addition, the gene related to the autophagy used the primer as follows: […]
# [3] = system: cytosolic superoxide anion; assay: Superoxide anion in cell (cytoplasm), DHE; format: cell-based; conditions: human diploid fibroblast; 1 mM PQ 30 minutes; FIG. 24A
# Description: (§2) The cell was treated with 1 mM of PQ for 30 minutes, and then was cultured at 37° C. for 15 minutes after adding oxidant-sensitive fluorescent dyes (A) DHE (5 uM, cytosol specific) and (B) MitoSOX (5 uM, mitochondria specific), respectively. For identifying the change of fluorescence, the excitation and emission wavelength of DHE were measured at 515 and 590 nm and MitoSOX was measured at 520 and 580 nm by using a multiwell plate reader. The results were indicated by calculating the results of three experiments as a control rate (%). The statistical significant was expressed as *, # p<0.005; ** p<0.05.
# The cell was twice washed with DPBS and Ethidium-DNA that fluoresces was immediately measured at excitation wavelength 515 nm and emission wavelength 590 nm by using Cary Eclipse fluorescence spectrophotometer (Varian, Calif., USA) machine.
# [4] = system: mitochondria superoxide anion; assay: Superoxide anion in mitochondria, MitoSOX Red; format: cell-based; conditions: human diploid fibroblast; 1 mM PQ 30 minutes; FIG. 24B
# Description: as §2
# Mitochondria superoxide anion was measured by using the fluorescence material, i.e., MitoSOX Red. […] The cell was twice washed with DPBS and the fluorescence was immediately measured at excitation wavelength 515 nm and emission wavelength 590 nm by using CEFS [Cary Eclipse fluorescence spectrophotometer (Varian, Calif., USA)] machine.
# SOD2 = assay: Western blot of SOD2 amount in human diploid fibroblast; format: cell-based; conditions: various concentrations of DDS, FIG. 25B
# Description: Trolox that is well known as a water-soluble vitamin E was used as a positive control.
# The isolated sample was transferred to a nitrocellulose and analyzed through Western Blot using MS601 (Total OXPHOS Complexes Detection Kit, MitoSciences, containing antibodies against SDH30 subunit of complex II (5 μg/ml), Core2 subunit of complex III (0.2 μg/ml), COXII subunit of complex IV (2 μg/ml), and subunit α of F1-ATPase of complex V (0.2 μg/ml)), PCKpan-p, PCKα/β-p, PKCδ-p (Phospho-PKC antibody Sampler Kit, Cell Signaling Technology), PKC α, PCKβ, PKCδ (Life Technologies), β-Actin (Sigma), and the like. The measurement was performed by using a horseradish […] secondary antibodies (Zymed) and ECL (Pierce). The results were shown through visualizing by using Autoradiographic film (Image Reader, LAS-3000Fujifilm, Japan).
# mitochondria = assay: Mitochondria structure staining with MitoTracker Red; format: cell-based, human; conditions: pretreated with DDS or DPI, then 1 mM PQ 24 hours; FIG. 30
# Description: The first photograph indicates the stained mitochondria of the non-treated human diploid fibroblast as a control, the second photograph indicates the stained mitochondria of the PQ-treated human diploid fibroblast, the third photograph indicates the stained mitochondria of the human diploid fibroblast that was pretreated with DDS and then was treated with PQ, and the final photograph indicates the stained mitochondria of the human diploid fibroblast that was treated with DPI and PQ together (by using Confocal process). The values of (A, B, C and D: ×4000) is means±SEM (n=3), # is p<0.005 relative CC; and * is p<0.005 relative C.
# The human diploid fibroblasts were cultured at 24-well plate. After the above experiment materials, i.e., the human diploid fibroblasts, were pretreated and then were treated with PQ for 24 hours, the above cells were treated with MitoTracker Red CMXRos (50 nM), which is a staining material for mitochondria, at 37° C. for 30 minutes. The dye is a marker of function for marking mitochondria through marking a transmembrane potential of mitochondria in a cell. After culturing, the cells were washed with PBS and then fixed with 4% of paraformaldehyde at 4° C. for overnight. […] After washing, the cells were covered with a cover glass and visualized through a fluorescence microscope.
# human diploid fibroblast = assay: Growth suppression of human diploid fibroblast by DDS (data not shown); format: cell-based; conditions: read-out: DDS concentration that can suppress 50% growth of human diploid fibroblast (1050)
smiles,measurement,setting,value
"Nc1ccc(S(=O)(=O)c2ccc(N)cc2)cc1 [DDS, 4,4′-diaminodiphenylsulfone]",generation of lipofuscin,C. elegans [1],delayed for several days
same,survival rate in NGM liquid medium containing PQ,C. elegans [2],significantly increased
same,"amounts of mRNA of C. elegans NOX, ceDuox",ceDuox1,significantly decreased
same,content of pyruvate compared with a control,pyruvate,high content of pyruvate
same,"genes relevant to the autophagy, transcription level","autophagy; RT-PCR, FIG. 21A",not changed
same,LGG-1 marker protein of the autophagy,"autophagy; immune blot, FIG. 21B",not increased
same,superoxide anion of cytoplasm produced by PQ (DHE assay),[3],reduced depending upon the concentration of DDS
same,production of superoxide anion in the mitochondria,[4],suppresses
same,amount of SOD2,SOD2,decreases
same,shape of mitochondria after PQ (MitoTracker),mitochondria,"recovered, partially"
same,IC50,human diploid fibroblast,~745 µM
